Test results taken from patent publication US20080145313A1, “Compositions and Methods for the Treatment and Prevention of Neoplastic Disorders” (Genesis Research & Development Corporation Limited, priority 2006, published 2008).
Marks after values point to notes of the source that are not given here.

Tested on: A549 cells
Test: Growth inhibition of siRNA-transfected A549 cells, SYBR Green I DNA content
Assay type: cell-based, human
Details: for Growth Inhibition in A549 cells by 10 nM siRNA: transporter gene targets; for growth inhibition, A549 cells: standardized against control siRNA
How it was run: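 A549 cells reverse-transfected with 10 nM Stealth siRNAs via Lipofectamine RNAiMAX, seeded at 5×10^3 cells/cm^2 in RPMI 1640/10% FCS; non-specific siRNA control. DNA content read 96 h post-transfection by SYBR Green I fluorescence (ex 485/em 535 nm) after freeze-thaw and Triton X-100 lysis; mean of three wells.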

[1] = 10 nM siRNA, DNA content 96 hours after transfection

SEQ ID NO: 4924: siRNA targeting SLC16A1 (MCT1) (chain 1 TTAGACTTATCTTTCCCTGCCTTGG; chain 2 UUAGACUUAUCUUUCCCUGCCUUGG; chemistry not given here; one strand in two spellings)
Growth Inhibition in A549 cells by 10 nM siRNA [1]: ++ (inhibits by at least 75%)

SEQ ID NO: 4932: siRNA targeting SLC29A1 (ENT1) (chain 1 TGATAAAGTAGCCGAAGGCACTTTC; chain 2 UGAUAAAGUAGCCGAAGGCACUUUC; chemistry not given here; one strand in two spellings)
Growth Inhibition in A549 cells by 10 nM siRNA [1]: − (no growth inhibition)

SEQ ID NO: 4982: siRNA targeting YBX1 (chain 1 TTTGCTGGTAATTGCGTGGAGGACC; chain 2 UUUGCUGGUAAUUGCGUGGAGGACC; chemistry not given here; one strand in two spellings)
growth inhibition, A549 cells (10 nM siRNA): +++ (At least 70% inhibition)

SEQ ID NO: 4983: siRNA targeting YBX1 (chain 1 TACTGTGGTCGACGCCCATAGGGTC; chain 2 UACUGUGGUCGACGCCCAUAGGGUC; chemistry not given here; one strand in two spellings)
growth inhibition, A549 cells (10 nM siRNA): + (At least 20% inhibition)

SEQ ID NO: 4984: siRNA targeting YBX1 (chain 1 CAAGGTAGACCAGTGAGGCAGAATA; chain 2 CAAGGUAGACCAGUGAGGCAGAAUA; chemistry not given here; one strand in two spellings)
growth inhibition, A549 cells (5 nM siRNA): ++** (At least 50% inhibition)

SEQ ID NO: 4985: siRNA targeting YBX1 (chain 1 CAGCCTAGAGAGGACGGCAATGAAG; chain 2 CAGCCUAGAGAGGACGGCAAUGAAG; chemistry not given here; one strand in two spellings)
growth inhibition, A549 cells (5 nM siRNA): +** (At least 20% inhibition)

SEQ ID NO: 5307: Stealth siRNA targeting RRM2 (chain 1 AATTCATCCCAATGAGCTTCACAGG; chain 2 AAUUCAUCCCAAUGAGCUUCACAGG; Stealth siRNA, chemical pattern not given here; one strand in two spellings)
Growth Inhibition in A549 cells [1]: ++ (inhibits by at least 75%)
